Assay results: patent US20220009951A1, “TORSEMIDE PHOSPHATE PRODRUG, PREPARATION METHOD AND COMPOSITION THEREOF” (Shanghai Xunhe Pharmaceutical Technology Co. Ltd., priority 2019, published 2022)
“Also recorded” adds a separate entry of the source. Counter-ions that a name gives are not always drawn.

Tests used:
[1] = tested on: Male SD rats; experiment: Comparison of diuretic effects (urine output of saline-loaded rats); assay type: in vivo, rat; conditions: 30 mL/kg normal saline intragastrically, drug 10 mg/kg iv, urine collected for 4 h
Description: Comparison of Diuretic Effects:
Male SD rats (body weight 180±20 g) were divided into seven groups randomly, three rats a group, and each rat was administered intragastrically 30 mL/kg normal saline. After intragastric administration of normal saline, except the blank control group, each group was given one drug (10 mg/kg, iv, 1 mg/mL, formulation prescription: 0.5% methylcellulose), and the urination was collected for 4 hours.

[2] = Comparison of water solubility of different forms of samples
[3] = cited from earlier work
[4] = cited from earlier work; remark: listed apart in the source

| Conclusion (water solubility class) [2] | SMILES | Urine output (mL/kg, 4 h) [1] [mL/kg] | pKa value [3] | solubility in 0.1 mol/L sodium hydroxide solution ([4]; 0.1 mol/L sodium hydroxide solution) | solubility in water ([4]; water) |
| --- | --- | --- | --- | --- | --- |
| soluble | Cc1cccc(Nc2ccncc2S(=O)(=O)N(COP(=O)(O)O)C(=O)NC(C)C)c1 [Compound of formula I, N-hydroxymethyl-torsemide phosphate] | 105.4 |  |  |  |
| easily soluble | Cc1cccc(Nc2ccncc2S(=O)(=O)N(COP(=O)(O)O)C(=O)NC(C)C)c1 [Compound of formula Ic, N-hydroxymethyl-torsemide phosphate triethylammonium salt] | 103.4 |  |  |  |
| easily soluble | Cc1cccc(Nc2ccncc2S(=O)(=O)N(COP(=O)(O)O)C(=O)NC(C)C)c1 [Compound of formula Id, N-hydroxymethyl-torsemide phosphate tri-n-butylammonium salt] | 105.6 |  |  |  |

The remaining lines, values behind:

| SMILES | Conclusion (water solubility class) [2] | Urine output (mL/kg, 4 h) [1] [mL/kg] | pKa value [3] | solubility in 0.1 mol/L sodium hydroxide solution ([4]; 0.1 mol/L sodium hydroxide solution) | solubility in water ([4]; water) |
| --- | --- | --- | --- | --- | --- |
| Cc1cccc(Nc2ccncc2S(=O)(=O)N(COP(=O)([O-])[O-])C(=O)NC(C)C)c1.[Na+].[Na+] [Compound of formula Ia, disodium N-hydroxymethyl-torsemide phosphate] |  | 121.6 |  |  |  |
| Cc1cccc(Nc2ccncc2S(=O)(=O)N(COP(=O)([O-])[O-])C(=O)NC(C)C)c1.[K+].[K+] [Compound of formula Ib, dipotassium N-hydroxymethyl-torsemide phosphate] |  | 116.8 |  |  |  |
| Cc1cccc(Nc2ccncc2S(=O)(=O)NC(=O)NC(C)C)c1 [Torsemide, 1-[4-(3-methylphenyl)aminopyridin-3-yl]sulfonyl-3-isopropylurea] |  | 100.3 | 6.44 | slightly soluble | almost insoluble; also recorded: very slightly soluble |
